Measured values: ChEMBL document CHEMBL1649440, “Impact of sarA on antibiotic susceptibility of Staphylococcus aureus in a catheter-associated in vitro model of biofilm formation” (2009)
In brackets after ≈: the same amount, converted by molar mass.

Tests used:
[1] = test system: Staphylococcus aureus; test: Antimicrobial activity against Staphylococcus aureus isolate UAMS-1 by Etest method; format: functional
[2] = test system: Staphylococcus aureus; test: Antimicrobial activity against Staphylococcus aureus isolate UAMS-929 harboring sarA gene mutant by Etest method; format: functional

| SMILES | MIC [1] | MIC [2] |
| --- | --- | --- |
| CCCCCCCCCC(=O)N[C@@H](Cc1c[nH]c2ccccc12)C(=O)N[C@H](CC(N)=O)C(=O)N[C@@H](CC(=O)O)C(=O)N[C@@H]1C(=O)NCC(=O)N[C@@H](CCCN)C(=O)N[C@@H](CC(=O)O)C(=O)N[C@H](C)C(=O)N[C@@H](CC(=O)O)C(=O)NCC(=O)N[C@H](CO)C(=O)N[C@@H]([C@H](C)CC(=O)O)C(=O)N[C@@H](CC(=O)c2ccccc2N)C(=O)O[C@@H]1C | 0.75 µg/mL (≈ 0.463 µM) | 0.75 µg/mL (≈ 0.463 µM) |
| CC(=O)NC[C@H]1CN(c2ccc(N3CCOCC3)c(F)c2)C(=O)O1 [LINEZOLID] | 1 µg/mL (≈ 2.96 µM) | 1 µg/mL (≈ 2.96 µM) |
| CN[C@H](CC(C)C)C(=O)N[C@H]1C(=O)N[C@@H](CC(N)=O)C(=O)N[C@H]2C(=O)N[C@H]3C(=O)N[C@H](C(=O)N[C@H](C(=O)O)c4cc(O)cc(O)c4-c4cc3ccc4O)[C@H](O)c3ccc(c(Cl)c3)Oc3cc2cc(c3O[C@@H]2O[C@H](CO)[C@@H](O)[C@H](O)[C@H]2O[C@H]2C[C@](C)(N)[C@H](O)[C@H](C)O2)Oc2ccc(cc2Cl)[C@H]1O [VANCOMYCIN] | 1.5 µg/mL (≈ 1.04 µM) | 1.5 µg/mL (≈ 1.04 µM) |
